Data taken from patent US20040043937A1, “Peptide and peptide mimetic derivatives with integrin-inhibitors properties II” (priority 2000, published 2004).
Where no end group is shown, it is not given here.

Tested on: mouse MC3T3 H1 osteoblast cultures
Assay: Cell adhesion test: adhesion of osteoblast cultures in vitro to peptide-coated material surfaces
Type: cell-based
Settings: 50 000 cells/cm^2 inoculated, incubation in serum-free medium at 37° C./95% atmospheric humidity for one hour
Description: Example for Cell Adhesion Test The adhesion of mouse MC3T3 H1 osteoblast cultures in vitro to peptide-coated material surfaces was investigated. In this test, 50 000 cells/cm^2 were inoculated and, after incubation in serum-free medium at 37° C./95% atmospheric humidity for one hour, the proportion of adhered cells was determined. Cell adhesion rate [%]=adhered cells/inoculated cells×100 The coating of culture surfaces made of polystyrene precoated with bovine serum albumin (BSA) with thiol peptides is disclosed in the prior art (see DE 198 18098 (Merck Patent GmbH), Ex. 2). The coating of PMMA surfaces with acrylate peptides is also described in DE 198 18098, Ex. 3.

Row | Substance | cell adhesion rate [%] (adhered cells/inoculated cells×100)
1 | Cys-Aca-Aca-Thr-Trp-Tyr-Lys-Ile-Ala-Phe-Gln-Arg-Asn-Arg-Lys ({Cys-Aca-Aca}-TWYKIAFQRNRK) [linear peptide with thiol (Cys) anchor] | 101
2 | Phe-Gln-Arg-Asn-Arg-Lys-Aca-Aca-Cys (FQRNRK-{Aca-Aca-Cys}) [linear peptide with thiol (Cys) anchor] | 13
3 | Cys-Aca-Aca-Thr-Trp-Tyr-Lys-Ile-Ala-Phe-Gln-Arg ({Cys-Aca-Aca}-TWYKIAFQR) [linear peptide with thiol (Cys) anchor] | 17
4 | Gua-Mab-azaGly-Asp-Hda-εAhx-εAhx-Aca | 75
5 | Thr-Trp-Tyr-Lys-Ile-Ala-Phe-Gln-Arg-Asn-Arg-Lys-Aca-Aca-Cys (TWYKIAFQRNRK-{Aca-Aca-Cys}) [linear peptide with thiol (Cys) anchor] | 105
6 | Cys-Aca-Aca-Thr-Trp-Tyr-Lys-Ile-Ala ({Cys-Aca-Aca}-TWYKIA) [linear peptide with thiol (Cys) anchor] | 7
7 | Lys-Ile-Ala-Phe-Gln-Arg-Asn-Arg-Lys-Aca-Aca-Cys (KIAFQRNRK-{Aca-Aca-Cys}) [linear peptide with thiol (Cys) anchor] | 96
